Like-named read-outs stand apart in the source and are kept apart here.
Assays:
[1] = pH of buffering agent in water; assay type: physicochemical
Description: Materials frequently used in the art to buffer digestive fluids are sodium bicarbonate and magnesium oxide. […] Over-treatment with buffer may be caused by errors in estimates of animal size, and the composition of the digestive fluid and by errors in measuring the amounts of the buffering material.
(§1) The example compares performance of compositions of the instant invention with sodium bicarbonate, with regard to original pH, and amount of acid buffered to pH 6. One gram of buffering agent was mixed with 100 grams water and titrated to pH 6 by 0.1N hydrochloric acid.

[2] = Buffer capacity by titration to pH 6 with 0.1N hydrochloric acid; assay type: physicochemical
Description: as §1

[3] = test system: rumen juices of a ruminant animal; conditions: steer, 50 lbs/day ration, three days on ration
Description: A ruminating steer weighing about 1100 pounds which had been fistulated so that rumen fluid samples could be withdrawn as desired for pH measurement was used in experiments in which the steer was fed a constant high energy ration typical of a finishing feedlot ration. The only change in the rations were in the types and amounts of buffering agent used. The buffering agents were blended into the feed ration prior to its use. The fistulated steer received the same buffered feed ration for three days prior to sampling the rumen fluid and determining pH.

[4] = test system: newly hatched broiler chicks; experiment: 21-day broiler chick feeding test of phosphorus bioavailability and weight gain; assay type: in vivo; conditions: 21 days
Method: The tests were conducted at a University Test Facility starting with newly hatched broiler chicks. The test was carried out over a 21-day period. Weight gain was measured in each group of 10 chicks. Also measured at the end of the test were weight gain/weight of feed, weight percent ash in the tibia, and the relative bioavailability.
Measurements were made comparing the results obtained with the test material and the Standard NRC technical grade hydrous dibasic calcium phosphate.

pH of Buffer 5% in H2O [1]	Buffer Capacity m.eg. of HCl brought to pH per gram compound ([2]; 1 gram in 100 grams water, titrated to pH 6 by 0.1N hydrochloric acid)	speed of changes in pH when combined with aqueous acid ([2]; during titration with 0.1N hydrochloric acid)	Compound	pH of Rumen Sample ([3]; buffer amount 0.5/1.00 lbs/%)	pH of Rumen Sample ([3]; buffer amount 0.8/1.60 lbs/%)	Ash Content of Tibia, Wt % ([4]; Added P in feed 0.15 Wt %)	Avg. Wt. Gain, Gms ([4]; Added P in feed 0.15 Wt %)	Wt. Gain, gms per grm feed ([4]; Added P in feed 0.15 Wt %)	Ash Content of Tibia, Wt % ([4]; Added P in feed 0.25 Wt %)	Avg. Wt. Gain, Gms ([4]; Added P in feed 0.25 Wt %)	Wt. Gain, gms per grm feed ([4]; Added P in feed 0.25 Wt %)	Ash Content of Tibia, Wt % ([4]; Added P in feed 0.35 Wt %)	Avg. Wt. Gain, Gms ([4]; Added P in feed 0.35 Wt %)	Wt. Gain, gms per grm feed ([4]; Added P in feed 0.35 Wt %)
9.0	10.0 m.eg. of HCl per gram compound	about instant	O=C([O-])O.[Na+] [NaHCO3, sodium bicarbonate]	6.7	7.4	–	–	–	–	–	–	–	–	–
–	–	–	hydrous dibasic calcium phosphate [Standard Phosphorus Source]	–	–	40.5 Wt %	639.6 Gms	0.688 gms per grm feed	41.5 Wt %	664.6 Gms	0.725 gms per grm feed	42.5 Wt %	667.7 Gms	0.722 gms per grm feed

Source: US6451361B1, “Alkali metal magnesium phosphate hydrate buffering feed mineral” (Agri-Nutrients Technology Group, Inc., priority 2001, dated 2002)
